Columns and labels:
Test in all cases: 10-day proliferation (CTG), SPLAM titration + 1000 nM Compound A, Bliss (Example 5; Tables 12-19)
Format in all cases: cell-based
Parameters in all cases: key: GDI scale -100 to 100; 0 = cell number at T0; <0 cytotoxic
[1] = test system: NCI-H838
Method: (§1) Synergy was measured across the Indisulam titration with 1000 nM Compound A by Bliss Independence analysis. Bliss scores >10 are indicated by “*” and are considered synergistic. […] Synergy as reported using Bliss may be underrepresented within cytotoxic dose ranges. Growth death index values are shown for the combination titration and each single agent Compound A (Cmpd A) and Indisulam on a scale of −100 to 100 with the midpoint (0) being the number of cells at the beginning of the combination (T0). Scores less than 0 are indicated with “**” and are representative of a cytotoxic response. Bliss and GDI values are shown for five MTAP-deficient cell lines: NCI-1H838 (12A), SW900 (12B), RT112/84 (12C), UMUC5 (121D), and UMUC11 (12E).
(§2) A 10-day proliferation assay was performed in a panel of 5 MTAP-deficient and 2 wild type non-small cell lung and bladder cancer cell lines. Optimal cell seeding for all cell lines was determined by assessing the growth over a range of seeding densities in a 384-well format to identify conditions that permitted proliferation for 10 days. Cells were then plated at the optimal seeding density and treated with 20-point, two-fold dilution series of each of four structurally different SPLAMs in combination with a 1000 nM fixed concentration of Compound A. Single agent titrations for Compound A and each SPLAM were included for comparison. Concentrations tested for each SPLAM alone or in combination ranged from 0.04 nM to 20,000 nM. A plate of cells was harvested at the time of compound addition to quantify the number of cells at the start of the combination (T0). For cell quantification, the harvested cells were lysed with Promega CellTiter-Glo (CTG) reagent according to the manufacturer's protocol and the chemiluminescent signal was detected as described in Example 1 above. Cells were incubated with the drug combinations at 37° C. with 5% CO2 for 10 days. Cells were then lysed with CTG and the chemiluminescent signal was measured.
(§3) CTG values obtained after the 10-day treatment were background subtracted and expressed as a percent of the T0 value set at 100%. Data were plotted against compound concentration and fit with a four-parameter equation to generate single agent dose response curves. Percent inhibition was determined for each combination and single agent concentration compared to a DMSO control. In addition, the overall net growth or death of the cells was calculated and reported as a growth death index (GDI) value on a scale of −100 to 100 with the midpoint (0) being the number of cells at the beginning of the combination (T0).
(§4) Predicted inhibition was calculated using (Ea+Eb)−(Ea*Eb) where E equals the effect (inhibition) of each single agent (a and b). A difference between the observed inhibition percentage and the predicted inhibition percentage greater than 10% was considered synergistic. A Bliss score was only reported for combinations eliciting >20% growth inhibition (GDI value <80). Since Bliss is calculated based on growth inhibition, scores within cytotoxic dose ranges may not accurately reflect synergistic cytoxicity.
(§5) Synergy was measured across the E7820 titration with 1000 nM Compound A by Bliss Independence analysis. Bliss scores >10 are indicated by “*” and are considered synergistic. […] Synergy as reported using Bliss may be underrepresented within cytotoxic dose ranges. Growth death index values are shown for the combination titration and each single agent Compound A (Cmpd A) and Indisulam on a scale of −100 to 100 with the midpoint (0) being the number of cells at the beginning of the combination (T0). Scores less than 0 are indicated by “**” and are representative of a cytotoxic response. Bliss and GDI values are shown for five MTAP-deficient cell lines: NCI-1H838 (14A), SW900 (14B), RT112/84 (14C), UMUC5 (141)), and UMUC11 (14E).
(§6) Synergy was measured across the Chloroquinoxaline Sulfonamide titration with 1000 nM Compound A by Bliss Independence analysis.

[2] = test system: RT112/84; details: for GDI (growth death index), single agent Cmpd A: RT112/84, 1000 nM Compound A
Method: as §1, §2, §3, §4, §5, §6

[3] = test system: UMUC11; details: for GDI (growth death index), single agent Cmpd A: UMUC11, 1000 nM Compound A
Method: as §1, §2, §3, §4, §5, §6

[4] = test system: UMUC5; details: for GDI (growth death index), single agent Cmpd A: UMUC5, 1000 nM Compound A
Method: as §1, §2, §3, §4, §5, §6

SMILES: Nc1nc(=O)n(-c2ccccc2Cl)c2nc(C(F)(F)F)ccc12 [Compound A]
- GDI (growth death index), single agent Cmpd A ([1]; NCI-H838, 1000 nM Compound A, Table 18A): 49
- GDI ([1]; single agent Cmpd A, 1000 nM): 49
- GDI (growth death index), single agent Cmpd A ([2]; Table 16C): 62
- GDI (growth death index), single agent Cmpd A ([2]; Table 18C): 62
- GDI ([2]; single agent Cmpd A, 1000 nM): 62
- GDI (growth death index), single agent Cmpd A ([3]; Table 16E): 100
- GDI (growth death index), single agent Cmpd A ([3]; Table 18E): 100
- GDI ([3]; single agent Cmpd A, 1000 nM): 100
- GDI (growth death index), single agent Cmpd A ([4]; Table 16D): 58
- GDI (growth death index), single agent Cmpd A ([4]; Table 18D): 58
- GDI ([4]; single agent Cmpd A, 1000 nM): 58

— US20260294915A1, “COMBINATION THERAPY COMPRISING A MAT2A INHIBITOR AND A TOPOISOMERASE INHIBITOR, A SPLICING INHIBITOR SULFONAMIDE, OR A KIF18 INHIBITOR” (IDEAYA BIOSCIENCES, INC., priority 2023, published 2026)
